Reference: patent publication US20050261194A1, “Use of thymulin-like peptides for making pain-relieving medicines” (priority 2001, published 2005)

Tests used:
Assay type in all cases: in vivo, rat
rats [1] = experiment: Fever (rectal temperature) induced by intraperitoneal ET; settings: TAP 25 μg i.p. before ET 50 μg i.p.; rectal temperature 1, 3, 6 h; FIG. 4C
Procedure: Protocol 2(b): Different groups of rats (n=5 in each group) were treated in the following fashion • either they received one intraperitoneal injection of 50 μg of ET, • or they were pretreated with the TAP peptide (25 μg, intraperitoneal injection), 30 minutes before an injection of endotoxin.
Rectal temperature was measured at 1 hour, 3 hours and 6 hours.
A control group received an intraperitoneal injection of TAP peptide (25 μg dissolved in 100 μl of saline solution).

rats [2] = experiment: Hyperalgesia induced by intraplantar injection of capsaicin; PP, HP, PI tests
Procedure: Injection of capsaicin (10 μg in 50 μl of a 10% solution of Tween 20 in olive oil) produced hyperalgesia, whose peak was at three to six hours after injection and which disappeared at the end of 24 hours. Mechanical hyperalgesia was evaluated using the paw pressure test (PP), which consists in applying a constant pressure of 0.2 kg/cm on the dorsal part of the hind paw. The time lapsed between the application of the pressure and the nociceptive reflex of retraction of the paw was considered as the latency time (or threshold) of mechanical nociceptive. Thermal hyperalgesia was evaluated using the hot-plate (HP) test and the paw immersion (PI) test.
The HP and PI tests were done as in Example 1, the hot-plate having a temperature 52.5±0.3° C. and the hot water container at 48±0.3° C.
The PP and PI tests were done one after the other on the two hind paws observing an interval of five minutes between two consecutive tests.
The rats were sent to the laboratory one week prior to injection so that they would become accustomed to the environment and the tests were done on the rats over two or three days in order to obtain the baseline value for each test before any treatment (detailed description in Kanaan S. A. et al., 1996, Endotoxin-induced local inflammation and hyperalgesia in rats and mice: a new model for inflammatory pain, Pain, 66:373-379).
In the course of the experiments involving the injection […]. of capsaicin, the mean of the measurements done using each pain test (PP, HP or PI) was calculated for each group of rats prior to the injection of the capsaicin (baseline condition) and at different time intervals after injection (3, 6, 9 and 24 hours). TAP was injected (i.p.) thirty minutes before the capsaicin and the latency times of the different pain tests were measured at the same intervals of time after injection of the capsaicin.

rats [3] = experiment: Visceral pain induced by intraperitoneal injection of capsaicin; 4-level behavioral scale
Procedure: This test consisted of injecting (i.p.) 20 μg of capsaicin in 100 μl of a 10% solution Tween 20 in olive oil in some rats and observing the behavior induced by these injections. A 4-level behavioral scale was designed according to the method described by Giesler G J et al., (1976, Inhibition of visceral pain by electrical stimulation of the periaqueductal gray matter, Pain 2:43-48).
The levels were defined as follows: 0=normal behavior; 1=slight contraction of the abdominal muscles; 2=contraction of one single side and luxation of the haunch dropping; 3=significant contraction of the abdominal muscles and extension of the two rear paws.
For the evaluation of the animals' behavior, each rat was placed in transparent cage placed over a mirror inclined at 45° for optimum observation.
[…] None of the two observers knew the injection administered nor the expected effects.
For the injection i.p. of the capsaicin, the total time corresponding to each behavioral level was measured for the animals having received the capsaicin alone or the capsaicin after the TAP. The variation of the neuropathic manifestations or of the pain tests after the treatments were evaluated by ANOVA then by Bonfrerroni tests done post hoc. The variations of the pain scores with or without treatment were evaluated by the Student bilateral test by assuming a significance level of 5% (p<0.05).

## Glu-Ala-lys-Ser-Gln-Gly-Gly-Ser-Asp (SQGGSD; N-terminal Glu-Ala-Lys; printed: Ser-Gln-Gly-Gly-Ser-Asp) [TAP]
Rats [1]
  effect on ET-induced increase of body temperature: nullified the process of increase of body temperature
Rats [2]; TAP 25 μg, no capsaicin, FIG. 8 controls
  modification of latency times in the pain tests, TAP alone: did not result in significant modification
Rats [2]; TAP highest dose i.p. before capsaicin 10 μg i.pl.
  effect on capsaicin-induced hyperalgesia at the more elevated dose: complete prevention
Rats [2]; TAP i.p. 1.5 or 25 μg/rat thirty minutes before capsaicin 10 μg, FIG. 8
  effect on hyperalgesia induced by intraplantar capsaicin: dose-dependent attenuation
Rats [3]; TAP 50 μg before capsaicin 20 μg i.p., FIG. 9
  effect on nociception scores induced by capsaicin: significant shift to the left
Rats [3]; TAP 50 μg in 200 μl/rat before capsaicin 20 μg i.p., capsaicin alone 0.2±0.3, 36 minutes observation
  time at behavioral level 0: 0.82 ± 0.18 min
Rats [3]; TAP 50 μg in 200 μl/rat before capsaicin 20 μg i.p., capsaicin alone 2.51±0.45, 36 minutes observation
  time at behavioral level 1: 12.89 ± 2.5 min
Rats [3]; TAP 50 μg in 200 μl/rat before capsaicin 20 μg i.p., capsaicin alone 11.84±0.43, 36 minutes observation
  time at behavioral level 3: 6.67 ± 0.09 min
Rats [3]; TAP 50 μg in 200 μl/rat before capsaicin 20 μg i.p., capsaicin alone 21.5±0.8, 36 minutes observation
  time at behavioral level 2: 15.62 ± 0.9 min
